Reference: patent US20220089575A1, “FARNESOID X RECEPTOR AGONISTS AND USES THEREOF” (Metacrine, Inc., priority 2017, published 2022)
Structures can show the parent of a compound that is named as a salt.

Target: T1, hFXR (Homo sapiens, UniProt Q96RI1)
T1 construct: expressed in transfected cells; host or cells: CV-1 cells
T1 sequence (Q96RI1 1-486): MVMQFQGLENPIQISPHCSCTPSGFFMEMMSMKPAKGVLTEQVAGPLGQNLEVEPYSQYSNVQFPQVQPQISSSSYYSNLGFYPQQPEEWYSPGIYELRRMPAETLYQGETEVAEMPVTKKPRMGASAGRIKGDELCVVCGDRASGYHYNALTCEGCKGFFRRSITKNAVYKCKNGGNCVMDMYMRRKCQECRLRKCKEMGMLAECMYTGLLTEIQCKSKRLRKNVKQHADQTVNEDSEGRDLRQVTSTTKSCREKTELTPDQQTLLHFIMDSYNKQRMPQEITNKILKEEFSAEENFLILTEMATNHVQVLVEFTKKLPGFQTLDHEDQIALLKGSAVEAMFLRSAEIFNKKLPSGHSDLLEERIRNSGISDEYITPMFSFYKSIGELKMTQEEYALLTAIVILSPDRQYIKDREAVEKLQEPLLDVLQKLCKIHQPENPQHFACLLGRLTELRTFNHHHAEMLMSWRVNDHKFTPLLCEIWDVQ
T1 sequence (P19793 1-462 partner): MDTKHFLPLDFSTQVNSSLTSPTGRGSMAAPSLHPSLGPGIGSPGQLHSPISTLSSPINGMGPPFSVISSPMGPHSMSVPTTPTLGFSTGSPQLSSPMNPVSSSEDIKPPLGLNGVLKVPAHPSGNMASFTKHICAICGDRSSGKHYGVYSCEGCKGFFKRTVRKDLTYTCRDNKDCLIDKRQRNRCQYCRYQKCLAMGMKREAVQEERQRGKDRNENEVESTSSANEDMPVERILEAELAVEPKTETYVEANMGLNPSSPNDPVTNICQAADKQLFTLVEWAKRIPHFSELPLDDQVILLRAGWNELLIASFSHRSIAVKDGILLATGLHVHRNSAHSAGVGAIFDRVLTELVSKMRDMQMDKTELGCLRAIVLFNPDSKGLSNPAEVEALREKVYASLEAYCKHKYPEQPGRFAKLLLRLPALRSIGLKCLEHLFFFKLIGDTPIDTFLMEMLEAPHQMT
Assay: In Vitro FXR Assay (TK): TK-ECRE-luc reporter in transfected CV-1 cells
Format: cell-based
Settings: 18 hrs, luminescence, maximum efficacy of <25% of the Fexarmine control classified as '+'
In short: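 Luciferase read-out after 18 h compound exposure of CV-1 cells carrying transfected hFXR plus hRXR expression plasmids, TK-ECRE-luc reporter and pCMX-YFP. Cells cultured in charcoal-stripped FBS before transfection; compounds serially diluted in DMSO.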

Compound | EC50
COc1ccc([C@H]2CC[C@H](CN(c3cc(-c4coc(C5CC5)n4)ccn3)C(=O)[C@H]3CC[C@H](OC(=O)N4CC(OC)C4)CC3)CC2)nc1C [Compound 7.76, trans-4-((4-(2-Cyclopropyloxazol-4-yl)pyridine-2-yl)((trans-4-(5-methoxy-6-methylpyridin-2-yl)cyclohexyl)methyl)carbamoyl)cyclohexyl 3-methoxyazetidine-1-carboxylate] | ≤ 0.25 µM
COc1ccc([C@H]2CC[C@H](CN(c3cccc(-c4cnn(C5CC5)c4)c3)C(=O)[C@H]3CC[C@H](CNS(C)(=O)=O)CC3)CC2)cc1C [Compound 26.15, trans-N-(3-(1-Cyclopropyl-1H-pyrazol-4-yl)phenyl)-N-((trans-4-(4-methoxy-3-methylphenyl)cyclohexyl)methyl)-4-(methylsulfonamidomethyl) cyclohexanecarboxamide] | ≤ 0.25 µM
COc1ccc([C@H]2CC[C@H](CN(c3cccc(-c4cnn(C(C)C)c4)c3)C(=O)[C@H]3CC[C@H](OC(=O)N4CC(O)C4)CC3)CC2)nc1C#N [Compound 7.43, trans-4-(((trans-4-(6-Cyano-5-methoxypyridin-2-yl)cyclohexyl)methyl)(3-(1-isopropyl-1H-pyrazol-4-yl)phenyl)carbamoyl)cyclohexyl 3-hydroxyazetidine-1-carboxylate] | ≤ 0.25 µM
COc1ccc([C@H]2CC[C@H](CN(c3cccc(-c4cnc(C(C)C)s4)c3)C(=O)[C@H]3CC[C@H](OC(=O)N4CC(O)C4)CC3)CC2)nc1C [Compound 7.05, trans-4-((3-(2-Isopropylthiazol-5-yl)phenyl)((trans-4-(5-methoxy-6-methylpyridin-2-yl)cyclohexyl)methyl)carbamoyl)cyclohexyl 3-hydroxyazetidine-1-carboxylate] | ≤ 0.25 µM
COc1ccc([C@H]2CC[C@H](CN(c3cc(-c4coc(C5CC5)n4)ccn3)C(=O)[C@H]3CC[C@H](OC(=O)N4CCOCC4)CC3)CC2)nc1C [Compound 6.59, trans-4-((4-(2-Cyclopropyloxazol-4-yl)pyridine-2-yl)((trans-4-(5-methoxy-6-methylpyridin-2-yl)cyclohexyl)methyl)carbamoyl)cyclohexyl morpholine-4-carboxylate] | ≤ 0.25 µM
COC(=O)NC[C@H]1CC[C@H](C(=O)N(C[C@H]2CC[C@H](c3ccc(OC)c(C)c3)CC2)c2cccc(-c3cnn(C4CC4)c3)c2)CC1 [Compound 26.14, Methyl ((trans-4-((3-(1-cyclopropyl-1H-pyrazol-4-yl)phenyl)((trans-4-(4-methoxy-3-methylphenyl)cyclohexyl)methyl)carbamoyl)cyclohexyl)methyl)carbamate] | ≤ 0.25 µM
COc1ccc([C@H]2CC[C@H](CN(c3cc(-c4cnn(C5CC5)c4)ccn3)C(=O)[C@H]3CC[C@H](NC(C)=O)CC3)CC2)cc1C [Compound 26.30, trans-4-Acetamido-N-(4-(1-cyclopropyl-1H-pyrazol-4-yl)pyridin-2-yl)-N-((trans-4-(4-methoxy-3-methylphenyl)cyclohexyl)methyl) cyclohexanecarboxamide] | ≤ 0.25 µM
CCC1CN(C(=O)O[C@H]2CC[C@H](C(=O)N(C[C@H]3CC[C@H](c4ccc(OC)c(C)n4)CC3)c3cc(-c4cnn(C(C)C)c4)ccn3)CC2)C1 [Compound 7.54, trans-4-((4-(1-Isopropyl-1H-pyrazol-4-yl)pyridin-2-yl)((trans-4-(5-methoxy-6-methylpyridin-2-yl)cyclohexyl)methyl)carbamoyl)cyclohexyl 3-ethylazetidine-1-carboxylate] | ≤ 0.25 µM
COc1ccc([C@H]2CC[C@H](CN(c3cccc(-c4cnc(C5CC5)s4)c3)C(=O)[C@H]3CC[C@H](OC(=O)NCCO)CC3)CC2)nc1C [Compound 6.07, trans-4-((3-(2-Cyclopropylthiazol-5-yl)phenyl)((trans-4-(5-methoxy-6-methylpyridin-2-yl)cyclohexyl)methyl)carbamoyl)cyclohexyl (2-hydroxyethyl)carbamate] | ≤ 0.25 µM
COc1ccc([C@H]2CC[C@H](CN(c3cccc(-c4coc(C(C)C)n4)c3)C(=O)[C@H]3CC[C@H](OC(=O)NCCO)CC3)CC2)cc1C [Compound 6.47, trans-4-((3-(2-Isopropyloxazol-4-yl)phenyl)((trans-4-(4-methoxy-3-methylphenyl)cyclohexyl)methyl)carbamoyl)cyclohexyl (2-hydroxyethyl) carbamate] | ≤ 0.25 µM
CCC1CN(C(=O)O[C@H]2CC[C@H](C(=O)N(C[C@H]3CC[C@H](c4ccc(OC)c(C)n4)CC3)c3cccc(-c4cnn(C(C)C)c4)c3)CC2)C1 [Compound 7.60, trans-4-((3-(1-Isopropyl-1H-pyrazol-4-yl)phenyl)((trans-4-(5-methoxy-6-methylpyridin-2-yl)cyclohexyl)methyl)carbamoyl)cyclohexyl 3-ethylazetidine-1-carboxylate] | ≤ 0.25 µM
COc1ccc([C@H]2CC[C@H](CN(c3cc(-c4coc(C(C)C)n4)ccn3)C(=O)[C@H]3CC[C@H](OC(=O)N4CC(OC(C)C)C4)CC3)CC2)nc1C [Compound 7.83, trans-4-((4-(2-Isopropyloxazol-4-yl)pyridin-2-yl)((trans-4-(5-methoxy-6-methylpyridin-2-yl)cyclohexyl)methyl)carbamoyl)cyclohexyl 3-isopropoxyazetidine-1-carboxylate] | ≤ 0.25 µM
COc1ccc([C@H]2CC[C@H](CN(c3cccc(-c4cnc(C5CC5)s4)c3)C(=O)[C@H]3CC[C@H](NS(C)(=O)=O)CC3)CC2)cc1C [Compound 25.11, trans-N-(3-(2-Cyclopropylthiazol-5-yl)phenyl)-N-((trans-4-(4-methoxy-3-methylphenyl)cyclohexyl)methyl)-4-(methylsulfonamido) cyclohexanecarboxamide] | ≤ 0.25 µM
COc1ccc([C@H]2CC[C@H](CN(c3cc(-c4coc(C5CC5)n4)ccn3)C(=O)[C@H]3CC[C@H](OC(=O)NCCO)CC3)CC2)cc1C [Compound 6.52, trans-4-((4-(2-Cyclopropyloxazol-4-yl)pyridine-2-yl)((trans-4-(4-methoxy-3-methylphenyl)cyclohexyl)methyl)carbamoyl)cyclohexyl (2-hydroxyethyl) carbamate] | ≤ 0.25 µM
COc1ccc([C@H]2CC[C@H](CN(c3cccc(-c4cnn(C5CC5)c4)c3)C(=O)[C@H]3CC[C@H](OC(=O)NC4CN(C)C4)CC3)CC2)cc1C [Compound 6.18, trans-4-((3-(1-Cyclopropyl-1H-pyrazol-4-yl)phenyl)((trans-4-(4-methoxy-3-methylphenyl)cyclohexyl)methyl)carbamoyl)cyclohexyl (1-methylazetidin-3-yl)carbamate] | ≤ 0.25 µM
COc1ncc(-c2cccc(N(C[C@H]3CC[C@H](c4ccc(OC)c(C)c4)CC3)C(=O)[C@H]3CC[C@H](OCCCO)CC3)c2)s1 [Compound 13.04, trans-4-(3-Hydroxypropoxy)-N-((trans-4-(4-methoxy-3-methylphenyl)cyclohexyl)methyl)-N-(3-(2-methoxythiazol-5-yl)phenyl) cyclohexanecarboxamide] | ≤ 0.25 µM
COc1ccc([C@H]2CC[C@H](CN(c3cccc(-c4cnn(C5CC5)c4)c3)C(=O)[C@H]3CC[C@H](OC(=O)N4CCS(=O)(=O)CC4)CC3)CC2)cc1C [Compound 7.30, trans-4-((3-(1-Cyclopropyl-1H-pyrazol-4-yl)phenyl)((trans-4-(4-methoxy-3-methylphenyl)cyclohexyl)methyl)carbamoyl)cyclohexyl thiomorpholine-4-carboxylate1,1-dioxide] | ≤ 0.25 µM
CNCCO[C@H]1CC[C@H](C(=O)N(C[C@H]2CC[C@H](c3ccc(OC)c(C)c3)CC2)c2cccc(-c3cnc(C4CC4)s3)c2)CC1 [Compound 11, trans-N-(3-(2-Cyclopropylthiazol-5-yl)phenyl)-N-((trans-4-(4-methoxy-3-methylphenyl)cyclohexyl)methyl)-4-(2-(methylamino)ethoxy) cyclohexanecarboxamide hydrochloride] | 0.25 to 1 µM
COc1ccc([C@H]2CC[C@H](CN(c3cccc(-c4cnc(C5CC5)s4)c3)C(=O)[C@H]3CC[C@H](NC(=O)COCCCO)CC3)CC2)cc1C [Compound 32.03, trans-N-(3-(2-Cyclopropylthiazol-5-yl)phenyl)-4-(2-(3-hydroxypropoxy)acetamido)-N-((trans-4-(4-methoxy-3-methylphenyl)cyclohexyl)methyl)cyclohexanecarboxamide] | ≤ 0.25 µM
